Laboratory results published in ChEMBL document CHEMBL4342441, “Small molecules targeting HIF-1α pathway for cancer therapy in recent years” (Bioorg Med Chem, 2020).

What was measured:
[1] = target: T1, Hypoxia-inducible factor 1-alpha (Homo sapiens, UniProt Q16665); test: Activation of HIF1 in human T47D cells; type: cell-based
[2] = target: T1, Hypoxia-inducible factor 1-alpha; test: Activation of HIF1 in human T47D cells after 30 mins by luciferase reporter gene assay; type: cell-based

T1 sequence (Q16665 whole entry): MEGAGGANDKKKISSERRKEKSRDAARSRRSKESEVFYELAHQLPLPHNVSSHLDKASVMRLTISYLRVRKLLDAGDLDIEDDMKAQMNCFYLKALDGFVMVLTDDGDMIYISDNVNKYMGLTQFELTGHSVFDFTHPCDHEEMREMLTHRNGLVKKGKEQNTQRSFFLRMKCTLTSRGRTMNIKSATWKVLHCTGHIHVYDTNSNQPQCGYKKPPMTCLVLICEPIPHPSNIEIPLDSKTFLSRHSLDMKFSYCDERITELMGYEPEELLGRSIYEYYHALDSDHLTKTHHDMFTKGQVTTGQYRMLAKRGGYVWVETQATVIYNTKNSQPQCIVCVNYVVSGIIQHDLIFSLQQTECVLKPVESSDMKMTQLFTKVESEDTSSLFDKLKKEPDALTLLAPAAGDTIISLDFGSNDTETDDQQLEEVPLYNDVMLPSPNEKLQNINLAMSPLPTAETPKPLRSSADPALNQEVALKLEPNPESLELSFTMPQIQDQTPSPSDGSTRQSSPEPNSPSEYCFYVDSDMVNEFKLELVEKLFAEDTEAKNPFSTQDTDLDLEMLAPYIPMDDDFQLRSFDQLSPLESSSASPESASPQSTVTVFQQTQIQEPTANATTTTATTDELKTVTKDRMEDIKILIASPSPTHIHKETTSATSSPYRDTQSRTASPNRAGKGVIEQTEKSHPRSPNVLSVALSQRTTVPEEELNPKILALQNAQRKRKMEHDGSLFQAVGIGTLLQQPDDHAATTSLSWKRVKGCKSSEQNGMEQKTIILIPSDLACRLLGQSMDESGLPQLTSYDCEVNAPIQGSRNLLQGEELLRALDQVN

IC50 [1]	IC50 [2]	Compound
0.02 µM		COc1ccc([C@@H](O)[C@@H](C)Oc2ccc([C@H]3O[C@H](c4ccc(OC)c(OC)c4)[C@H](C)[C@H]3C)cc2OC)cc1OC
	0.003 µM	COc1ccc([C@@H](O)[C@@H](C)Oc2ccc([C@@H]3CC[C@H](c4ccc(O[C@H](C)[C@H](O)c5ccc(OC)c(OC)c5)c(OC)c4)C3)cc2OC)cc1OC
